The nature of data set [1]: Determination of prodrug solubility (50 mg/mL target, HPLC of supernatant). Type of data set: physicochemical. The note with it: thermodynamic from solid. How it is done: For each test, approximately 5-10 mg was transferred to a 10 mL glass vial. Aqueous or organic solvent was added to each vial to achieve an overall concentration of 50 mg/mL. After vortexing aggressively for 2-3 minutes and sonicating in a bath sonicator for 5 minutes, undissolved drug was spun down at 1200×g for 5 minutes to generate a pellet. The supernatant was collected and filtered through a 0.2 μm nylon syringe filter into HPLC vials for drug content analysis. Drug concentration was determined by comparing against a standard calibration curve.

Another data set concerns African green monkeys. The note with it: monkey, in vivo.
[2] abbreviates: DMSO, organic solvent or mixture, read-out: Solubility DMSO.
Setting [3] is: organic solvent or mixture, DCM (dichloromethane), read-out: Solubility DCM.
Setting [4] is: water, read-out: Solubility Water.

In brackets after ≈: the same amount, converted by molar mass. Like-named read-outs stand apart in the source and are kept apart here.

For four compounds, solubility and Ocular toxicity findings results are on record in patent US20210040111A1, “DRUGS TO TREAT OCULAR DISORDERS” (Graybug Vision, Inc., priority 2018, published 2021).

In general, solubility refers to the concentration that dissolves in the medium under given conditions. Turning to `CCCCNc1cc(C(=O)O)cc(S(N)(=O)=O)c1Oc1ccccc1` [Bumetanide, reference compound], the solubility in data set [1] (setting [2]) is 25 mg/mL (≈ 68.6 mM); in data set [1] (setting [3]) it was 25 mg/mL (≈ 68.6 mM); in data set [1] (setting [4]), under 0.1 mg/mL. Moreover, the Ocular toxicity findings result in the data set on African green monkeys is given as “No ocular toxicity findings”.

On to `CCOC(=O)[C@H](C)OC(=O)[C@H](C)OC(=O)[C@H](C)OC(=O)[C@H](C)OC(=O)c1cc(S(N)(=O)=O)c(Cl)cc1NCc1ccco1` [Compd 1, furosemide-ethyl-PLA (n=4)], for which the results for the solubility in data set [1] (setting [2]), in data set [1] (setting [3]) and in data set [1] (setting [4]) were over 100 mg/mL, over 50 mg/mL and under 0.1 mg/mL, respectively.

Consider `CCCCNc1cc(C(=O)O[C@@H](C)C(=O)O[C@@H](C)C(=O)O[C@@H](C)C(=O)O[C@@H](C)C(=O)OCC)cc(S(N)(=O)=O)c1Oc1ccccc1` [Compound 2, bumetanide-ethyl-PLA (n=4)], for which the solubility was over 100 mg/mL in data set [1] (setting [2]), over 50 mg/mL in data set [1] (setting [3]) and under 0.1 mg/mL in data set [1] (setting [4]).

Regarding `CCOC(=O)[C@H](C)OC(=O)[C@H](C)OC(=O)[C@H](C)OC(=O)[C@H](C)OC(=O)[C@H](C)OC(=O)[C@H](C)OC(=O)c1cc(S(N)(=O)=O)c(Cl)cc1NCc1ccco1` [Compound 5, furosemide-ethyl-PLA (n=6)], the results for the solubility in data set [1] (setting [2]), in data set [1] (setting [3]) and in data set [1] (setting [4]) were over 100 mg/mL, over 50 mg/mL and under 0.1 mg/mL, respectively.
